From patent US20240101572A1, “DIHYDROOXADIAZINONE COMPOUND AND PHARMACEUTICAL USE THEREOF” (Japan Tobacco Inc., priority 2022, published 2024)
pIC50: −log10 of the molar value. Where two headings read alike, the source gives them in different places.

Legend:
full-length human PLD1 = full-length human PLD1 (Homo sapiens (Human), UniProt Q13393); experiment: Evaluation of human PLD1 enzyme inhibitory activity (Amplex Red / choline oxidase fluorescence); assay type: biochemical
In short: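 Fluorescence read-out couples choline to Amplex Red via choline oxidase and peroxidase after a 60 min room-temperature reaction. Enzyme: FLAG-tagged full-length human PLD1 from Expi293F cells, anti-FLAG purified; substrate diheptanoyl phosphatidylcholine; HEPES pH 7.5 assay buffer with 0.01% NP-40, 0.1% BSA, 5% DMSO final.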

full-length human PLD2 = full-length human PLD2 (Homo sapiens (Human), UniProt O14939); experiment: Evaluation of human PLD2 enzyme inhibitory activity (Amplex Red / choline oxidase fluorescence); assay type: biochemical
Chain of full-length human PLD2 (O14939 whole entry): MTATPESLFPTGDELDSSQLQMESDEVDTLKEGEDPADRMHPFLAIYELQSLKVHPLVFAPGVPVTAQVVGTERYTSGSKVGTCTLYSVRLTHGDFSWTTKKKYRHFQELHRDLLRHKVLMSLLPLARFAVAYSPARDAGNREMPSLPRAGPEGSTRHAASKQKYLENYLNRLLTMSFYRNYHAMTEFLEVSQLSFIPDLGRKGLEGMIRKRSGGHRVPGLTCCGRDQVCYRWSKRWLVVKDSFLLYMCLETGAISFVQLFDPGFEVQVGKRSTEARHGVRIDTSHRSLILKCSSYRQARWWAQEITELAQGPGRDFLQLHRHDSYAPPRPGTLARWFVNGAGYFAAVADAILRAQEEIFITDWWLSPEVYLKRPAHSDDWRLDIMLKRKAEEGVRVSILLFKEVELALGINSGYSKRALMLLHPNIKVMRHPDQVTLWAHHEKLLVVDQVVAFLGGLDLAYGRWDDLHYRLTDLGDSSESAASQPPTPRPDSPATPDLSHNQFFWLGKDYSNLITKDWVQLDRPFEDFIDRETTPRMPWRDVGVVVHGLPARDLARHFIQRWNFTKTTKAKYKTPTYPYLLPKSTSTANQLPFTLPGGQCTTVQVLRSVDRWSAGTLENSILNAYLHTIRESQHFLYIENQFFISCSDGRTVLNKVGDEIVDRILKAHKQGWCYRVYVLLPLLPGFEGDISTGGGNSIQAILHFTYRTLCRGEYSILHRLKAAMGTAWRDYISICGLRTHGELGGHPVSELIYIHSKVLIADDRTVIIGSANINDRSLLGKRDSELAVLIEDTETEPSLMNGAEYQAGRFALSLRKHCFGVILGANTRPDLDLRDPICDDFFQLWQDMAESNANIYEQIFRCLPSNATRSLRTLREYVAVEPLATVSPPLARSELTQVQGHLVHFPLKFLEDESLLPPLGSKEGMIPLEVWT
In short: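 Released choline was read by Amplex Red fluorescence coupled to choline oxidase and HRP after a 60 min room-temperature reaction. Substrate was diheptanoyl phosphatidylcholine, added as a 6 mmol/L solution, and enzyme was FLAG-tagged full-length human PLD2 from Expi293F, added as a 6 nmol/L solution. Buffer was 50 mM HEPES pH 7.5 with 5% final DMSO.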

[1] = full-length human PLD1 enzyme, read-out: PLD1 IC50
[2] = full-length human PLD2 enzyme, read-out: PLD2 IC50

Chain of full-length human PLD1 (Q13393 other isoform, or with tags, fused parts or gaps): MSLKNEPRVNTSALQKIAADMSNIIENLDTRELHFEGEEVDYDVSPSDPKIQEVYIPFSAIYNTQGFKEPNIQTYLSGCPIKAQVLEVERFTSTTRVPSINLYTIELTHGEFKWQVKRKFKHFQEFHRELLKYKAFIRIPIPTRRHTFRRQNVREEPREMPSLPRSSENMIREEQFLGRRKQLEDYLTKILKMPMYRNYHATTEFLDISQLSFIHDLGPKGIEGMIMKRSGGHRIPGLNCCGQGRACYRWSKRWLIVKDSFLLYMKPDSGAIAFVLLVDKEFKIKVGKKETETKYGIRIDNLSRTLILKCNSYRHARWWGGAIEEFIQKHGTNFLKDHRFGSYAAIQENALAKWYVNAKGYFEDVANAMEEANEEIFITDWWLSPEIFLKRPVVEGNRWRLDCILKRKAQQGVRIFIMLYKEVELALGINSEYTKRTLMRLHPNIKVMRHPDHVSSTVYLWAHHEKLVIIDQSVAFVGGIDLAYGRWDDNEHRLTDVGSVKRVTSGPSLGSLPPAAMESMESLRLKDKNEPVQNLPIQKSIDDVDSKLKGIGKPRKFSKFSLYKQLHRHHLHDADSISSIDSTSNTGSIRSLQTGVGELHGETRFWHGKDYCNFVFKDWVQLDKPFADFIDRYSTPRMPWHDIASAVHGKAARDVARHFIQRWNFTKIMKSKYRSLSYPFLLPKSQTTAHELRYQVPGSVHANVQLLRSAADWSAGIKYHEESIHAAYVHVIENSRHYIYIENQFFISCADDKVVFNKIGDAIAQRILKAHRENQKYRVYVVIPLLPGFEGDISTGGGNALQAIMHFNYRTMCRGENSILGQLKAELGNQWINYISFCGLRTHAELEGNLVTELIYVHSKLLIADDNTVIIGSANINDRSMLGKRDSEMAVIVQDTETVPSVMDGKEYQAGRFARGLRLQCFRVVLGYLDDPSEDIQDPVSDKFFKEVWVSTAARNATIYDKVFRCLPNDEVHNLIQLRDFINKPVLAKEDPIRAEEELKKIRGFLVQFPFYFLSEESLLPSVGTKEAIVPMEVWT

Row | Compound | pIC50 (full-length human PLD1; [1]) | pIC50 (full-length human PLD2; [2]) | pIC50 (full-length human PLD1; column 1 of continuation tables 2-12 to 2-14, read-out: human PLD1 enzyme inhibitory activity IC50) | pIC50 (full-length human PLD2; column 2 of continuation tables 2-12 to 2-14, read-out: human PLD2 enzyme inhibitory activity IC50)
1 | Cc1cc(C(=O)N[C@@H](C)CN2CCC3(CC2)OC(=O)NN=C3c2cccc(C(F)(F)F)c2Br)[nH]n1 [Example 2-052] | 7.68 | > 8.00 | – | –
2 | CNC(=O)C(=O)N[C@@H](C)C[C@H]1CC[C@]2(CC1)OC(=O)NN=C2c1ccccc1Br [Example 26] | > 8.00 | > 8.00 | – | –
3 | Cc1cc(C(=O)N[C@@H](C)CN2CCC3(CC2)OC(=O)NN=C3c2ccc(S(C)(=O)=O)cc2Cl)[nH]n1 [Example 128] | 6.73 | 7.22 | – | –
4 | Cc1cc(N2CCOCC2)ccc1C1=NNC(=O)O[C@]12CC[C@@H](C[C@H](C)NC(=O)C(=O)NC1CC1)CC2 [Example 218] | 7.64 | 7.89 | – | –
5 | Cc1cc(C(=O)NC[C@@H](C)N2CCC3(CC2)OC(=O)NN=C3c2ccc(C#N)cc2Br)[nH]n1 [Example 332] | 5.59 | 7.82 | – | –
6 | Cc1cc(C(=O)N[C@@H](C)C[C@H]2CC[C@]3(CC2)OC(=O)NN=C3c2cc(OC(F)(F)F)ccc2Br)[nH]n1 [Example 304] | > 8.00 | > 8.00 | – | –
7 | C[C@@H](C[C@H]1CC[C@]2(CC1)OC(=O)NN=C2c1ccc(F)cc1Cl)NC(=O)c1cc2cc(F)ccc2o1 [Example 61] | 7.85 | 7.96 | – | –
8 | C[C@@H](C[C@H]1CC[C@]2(CC1)OC(=O)NN=C2c1ccc(F)cc1Br)NC(=O)CCS(C)(=O)=O [Example 43] | 6.66 | 6.74 | – | –
9 | Cc1cc(C(=O)N[C@@H](C)C[C@H]2CC[C@]3(CC2)OC(=O)NN=C3c2cnc(N3CC4CCC(C3)O4)cc2C)[nH]n1 [Example 251] | 7.77 | > 8.00 | – | –
10 | CNC(=O)C(=O)NCC[C@H]1CC[C@]2(CC1)OC(=O)NN=C2c1ccc(F)cc1Br [Example 47] | 6.92 | > 8.00 | – | –
11 | COc1cc(C)c(C2=NNC(=O)O[C@]23CC[C@@H](C[C@H](C)NC(=O)CC#N)CC3)cn1 [Example 263] | 5.56 | 5.35 | – | –
12 | Cc1cc(C(=O)N[C@@H](C)C[C@H]2CC[C@]3(CC2)OC(=O)NN=C3c2cnc(N3C[C@H]4C[C@@H]3CO4)cc2C)[nH]n1 [Example 249] | 7.60 | > 8.00 | – | –
13 | [2H]C([2H])([2H])NC(=O)C(=O)N[C@@H](C)C[C@]1(C#N)CC[C@@]2(CC1)OC(=O)NN=C2c1cc(F)ccc1Br [Example 2-133] | – | – | 7.85 | > 8.00
14 | C[C@@H](C[C@H]1CC[C@]2(CC1)OC(=O)NN=C2c1ccc(F)cc1C1CC1)NC(=O)c1cc(Cl)no1 [Example 65] | > 8.00 | > 8.00 | – | –
15 | CNC(=O)C(=O)N[C@@H](C)CN1CC[C@]2(C[C@@H]1C)OC(=O)NN=C2c1ccc(C#N)cc1Cl [Example 280] | 6.83 | 6.50 | – | –
16 | Cc1ccncc1C1=NNC(=O)O[C@]12CC[C@@H](C[C@H](C)NC(=O)c1cc(Cl)no1)CC2 [Example 113] | 7.77 | 7.89 | – | –
17 | Cc1cc(Br)ccc1C1=NNC(=O)O[C@]12CC[C@@H](C[C@H](C)NC(=O)C(=O)NC1CC1)CC2 [Example 209] | 7.74 | 7.74 | – | –
18 | C[C@@H](CN1CCC2(CC1)OC(=O)NN=C2c1ccc(C#N)cc1Br)NC(=O)c1cnn(C)c1 [Example 336] | 7.48 | > 8.00 | – | –
19 | C[C@@H](C[C@H]1CC[C@]2(CC1)OC(=O)NN=C2c1ccc(F)cc1Br)NC(=O)N1CCC2(CC2)C1 [Example 282] | 7.01 | 6.84 | – | –
20 | Cc1cc(C(=O)N[C@@H](C)C[C@H]2CC[C@]3(CC2)OC(=O)NN=C3c2cnc(N3CCC(F)(F)C3)cc2Cl)[nH]n1 [Example 224] | 7.89 | > 8.00 | – | –

Row | Compound | pIC50 (full-length human PLD1; [1]) | pIC50 (full-length human PLD2; [2]) | pIC50 (full-length human PLD1; column 1 of continuation tables 2-12 to 2-14, read-out: human PLD1 enzyme inhibitory activity IC50) | pIC50 (full-length human PLD2; column 2 of continuation tables 2-12 to 2-14, read-out: human PLD2 enzyme inhibitory activity IC50)
21 | CNC(=O)C(=O)N[C@@H](C)C[C@]1(C#N)CC[C@@]2(CC1)OC(=O)NN=C2c1cccc(C(F)(F)F)c1Br [Example 2-076] | 7.96 | > 8.00 | – | –
22 | C=C(OCC)c1ccc(C2=NNC(=O)O[C@]23CC[C@@H](C[C@H](C)NC(=O)C(=O)NC)CC3)c(C)c1 [Example 163] | > 8.00 | > 8.00 | – | –
23 | Cc1cc(C(=O)N[C@@H](C)C[C@H]2CC[C@]3(CC2)OC(=O)NN=C3c2cccc(OC(F)F)c2Br)[nH]n1 [Example 307] | 7.89 | > 8.00 | – | –
24 | C[C@@H](C[C@H]1CC[C@]2(CC1)OC(=O)NN=C2c1ccc(F)cc1Br)NC(=O)c1cn(C)nn1 [Example 76] | 7.77 | 7.77 | – | –
25 | [2H]C([2H])([2H])NC(=O)C(=O)N[C@@H](C)C[C@H]1CC[C@]2(CC1)OC(=O)NN=C2c1cc(C#N)ccc1Br [Example 2-073] | 7.85 | 8.70 | – | –
26 | Cc1cc(C(=O)N[C@@H](C)CN2CCC3(CC2)OC(=O)NN=C3c2cc(C#N)ccc2Br)[nH]n1 [Example 301] | 7.52 | > 8.00 | – | –
27 | CNC(=O)C(=O)N[C@@H](C)C[C@H]1CC[C@]2(CC1)OC(=O)NN=C2c1cnc(N2C[C@H]3C[C@@H]2CO3)cc1Cl [Example 243] | 7.62 | > 8.00 | – | –
28 | CNC(=O)C(=O)N[C@@H](C)C[C@H]1CC[C@]2(CC1)OC(=O)NN=C2c1cnc(Cl)cc1C [Example 158] | 7.57 | 7.82 | – | –
29 | CNC(=O)C(=O)N[C@@H](C)C[C@H]1CC[C@]2(CC1)OC(=O)NN=C2c1cc(C)ccc1C [Example 126] | 7.89 | > 8.00 | – | –
30 | CNC(=O)C(=O)N[C@@H](C)C[C@H]1CC[C@]2(CC1)OC(=O)NN=C2c1ccc(OCC(F)(F)F)cc1Br [Example 86] | 7.89 | > 8.00 | – | –
31 | CNC(=O)C(=O)N[C@@H](C)C[C@H]1CC[C@]2(CC1)OC(=O)NN=C2c1cnc(N2CC3CCC(C2)O3)cc1C [Example 269] | 7.74 | > 8.00 | – | –
32 | CSc1ccc(C2=NNC(=O)OC23CCN(C[C@H](C)NC(=O)c2cc(C)n[nH]2)CC3)c(Cl)c1 [Example 127] | 7.60 | > 8.00 | – | –
33 | C[C@@H](C[C@H]1CC[C@]2(CC1)OC(=O)NN=C2c1cc(C#N)ccc1Br)NC(=O)NC1CC1 [Example 222, 1-((S)-1-(cis-5-(2-bromo-5-cyanophenyl)-2-oxo-1-oxa-3,4-diazaspiro[5.5]undec-4-en-9-yl)propan-2-yl)-3-cyclopropylurea] | 7.23 | 6.77 | – | –
34 | CNC(=O)C(=O)N[C@@H](C)C[C@H]1CC[C@]2(CC1)OC(=O)NN=C2c1cccc(C)c1C [Example 129] | 7.74 | > 8.00 | – | –
35 | CNC(=O)C(=O)N[C@@H](C)C[C@H]1CC[C@]2(CC1)OC(=O)NN=C2c1ccc(C(C)(C)O)cc1C [Example 178] | 7.85 | 7.77 | – | –
36 | C[C@@H](C[C@H]1CC[C@]2(CC1)OC(=O)NN=C2c1cccc(C#N)c1Br)NC(=O)C(=O)NC1CC1 [Example 316] | 7.34 | 7.21 | – | –
37 | CNC(=O)C(=O)N[C@@H](C)C[C@H]1CC[C@]2(CC1)OC(=O)NN=C2c1cc(OC(F)F)ccc1C [Example 194] | > 8.00 | > 8.00 | – | –
38 | Cc1cc(C(=O)N[C@@H](C)CN2CCC3(CC2)OC(=O)NN=C3c2ccc(C#N)cc2Br)on1 [Example 2-062] | 7.60 | 7.60 | – | –
39 | Cc1cc(F)ccc1C1=NNC(=O)O[C@]12CC[C@@H](C[C@H](C)NC(=O)N1Cc3ccccc3C1)CC2 [Example 101] | > 8.00 | > 8.00 | – | –
40 | C[C@@H](CN1CCC2(CC1)OC(=O)NN=C2c1cc(C#N)ccc1Br)NC(=O)/C=C/C(F)(F)F [Example 2-003] | 7.42 | 7.92 | – | –
